Laboratory results taken from ChEMBL document CHEMBL4190268, “Design, synthesis and biological studies of a library of NK1-Receptor Ligands Based on a 5-arylthiosubstituted 2-amino-4,6-diaryl-3-cyano-4H-pyran core: Switch from antagonist to agonist effect by chemical modification” (Eur J Med Chem, 2017).
The source made the active and inactive calls. The calls are words filed in the database; no cut-off is given here.

Tests used:
[1] = target: T1, Substance-P receptor (Homo sapiens, UniProt P25103); test: Antagonist activity at His6-tagged NK1 receptor (unknown origin) expressed in CHO cells assessed as inhibition of substance-P-induced IP1 accumulation at 5 x 10^-5M preincubated for 10 mins followed by substance-P addition measured after 30 mins by HTRF-FRET assay relative to control; format: functional, cell-based
T1 sequence (P25103 whole entry): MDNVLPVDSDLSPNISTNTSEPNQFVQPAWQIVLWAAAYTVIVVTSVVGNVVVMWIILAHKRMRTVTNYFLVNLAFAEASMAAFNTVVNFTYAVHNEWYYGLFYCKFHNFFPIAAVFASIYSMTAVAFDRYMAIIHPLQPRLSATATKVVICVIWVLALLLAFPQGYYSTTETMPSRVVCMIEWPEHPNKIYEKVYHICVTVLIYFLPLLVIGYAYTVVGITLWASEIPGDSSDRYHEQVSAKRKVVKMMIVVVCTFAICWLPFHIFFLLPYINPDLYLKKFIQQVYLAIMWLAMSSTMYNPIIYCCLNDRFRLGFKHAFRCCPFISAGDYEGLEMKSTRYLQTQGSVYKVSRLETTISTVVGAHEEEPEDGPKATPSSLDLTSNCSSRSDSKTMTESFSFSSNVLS

[2] = target: T1, Substance-P receptor; test: Antagonist activity at His6-tagged NK1 receptor (unknown origin) expressed in CHO cells assessed as inhibition of substance-P-induced IP1 accumulation at 10^-5 M preincubated for 10 mins followed by substance-P addition measured after 30 mins by HTRF-FRET assay relative to control; format: functional, cell-based
[3] = target: T1, Substance-P receptor; test: Partial agonist activity at His6-tagged NK1 receptor (unknown origin) expressed in CHO cells assessed as IP1 accumulation at 5 x 10^-5M measured after 30 mins by HTRF-FRET assay relative to control; format: functional, cell-based
[4] = target: T1, Substance-P receptor; test: Partial agonist activity at His6-tagged NK1 receptor (unknown origin) expressed in CHO cells assessed as IP1 accumulation at 10^-5 M measured after 30 mins by HTRF-FRET assay relative to control; format: functional, cell-based
[5] = test system: A549; test: cells; settings: Homo sapiens, A549, 48 h
[6] = test system: MRC5; test: cells; settings: Homo sapiens, MRC5, 48 h
Description: Cytotoxicity against human MRC5 cells after 48 hrs by MTT assay

[7] = test system: A549; test: Cytotoxicity against human A549 cells assessed as cell death at greater than antiproliferative IC50 after 48 hrs by MTT assay relative to control; format: functional
[8] = test system: MRC5; test: Cytotoxicity against human MRC5 cells assessed as cell death at greater than cytotoxic IC50 after 48 hrs by MTT assay relative to control; format: cell-based; settings: mrc5, 48 h
[9] = target: T1, Substance-P receptor; test: Partial agonist activity at His6-tagged NK1 receptor (unknown origin) expressed in CHO cells assessed as IP1 accumulation measured after 30 mins by HTRF-FRET assay; format: functional, cell-based
[10] = test system: A549; test: Growth inhibition of human A549 cells at 10^3 uM after 48 hrs by MTT assay relative to control; format: functional
[11] = Cytotoxicity against human MRC5 cells assessed as cell growth inhibition at 10^3 uM after 48 hrs by MTT assay relative to control; format: cell-based; settings: read-out: GI
[12] = test system: A549; test: Growth inhibition of human A549 cells at 1 mM by inverted microscopic method; format: functional, cell-based
[13] = target: T1, Substance-P receptor; test: Antagonist activity at His6-tagged NK1 receptor (unknown origin) expressed in CHO cells assessed as inhibition of substance-P-induced IP1 accumulation preincubated for 10 mins followed by substance-P addition measured after 30 mins by HTRF-FRET assay
[14] = target: T1, Substance-P receptor; settings: CHO, 10^-7 M
Description: Antagonist activity at His6-tagged NK1 receptor (unknown origin) expressed in CHO cells assessed as inhibition of substance-P-induced IP1 accumulation at 10^-7 M preincubated for 10 mins followed by substance-P addition measured after 30 mins by HTRF-FRET assay relative to control

[15] = test system: A549; test: Cytotoxicity against human A549 cells assessed as cell viability at 320 uM after 48 hrs by MTT assay relative to control; format: functional; settings: A549, 48 h, read-out: Activity
[16] = Cytotoxicity against human MRC5 cells assessed as cell viability at 320 uM after 48 hrs by MTT assay relative to control; format: cell-based; settings: read-out: Activity

SMILES | inhibition [1] [%] | inhibition [2] [%] | other results
CC(=O)NC1=C(C#N)[C@@H](c2ccc(C)cc2)C([S@@+]([O-])c2ccc(C)cc2)=C(c2ccccn2)O1 | 47.2 | 33.3 | Activity [3]: 30.4%; Activity [4]: 19.8%; IC50 [5]: 108 µM; IC50 [6]: 136 µM
Cc1ccc([S+]([O-])C2=C(c3ccccn3)OC(N)=C(C#N)C2c2ccccc2)cc1 (racemic) | 24.4 | 35 | –
Cc1ccc([S@+]([O-])C2=C(c3ccccn3)OC(N)=C(C#N)[C@H]2c2ccccc2)cc1 | 51.1 | 42 | Activity [7]: <=80%; Activity [8]: < 30%; IC50 [5]: 172 µM; IC50 [6]: 132 µM
Cc1ccc([S@@+]([O-])C2=C(c3ccccn3)OC(N)=C(C#N)[C@@H]2c2ccccc2)cc1 | 20.9 | 28.8 | IC50 [5]: 196 µM; IC50 [6]: 425 µM
N#CC1=C(N)OC(c2ccccn2)=C([S+]([O-])c2ccc([N+](=O)[O-])cc2)C1c1ccccc1 (racemic) | 56.6 | – | –
Cc1ccc(C2C(C#N)=C(N)OC(c3ccccn3)=C2[S+]([O-])c2ccc([N+](=O)[O-])cc2)cc1 (racemic) | 38.1 | – | –
Cc1ccc(SC2=C(c3ccccn3)OC(NC(=O)C(F)(F)F)=C(C#N)[C@H]2c2ccc([N+](=O)[O-])cc2)cc1 | 23.8 | – | Activity [3]: 62.3%; Activity [4]: 25.9%; EC50 [9]: 350 µM
Cc1ccc([S+]([O-])C2=C(c3ccco3)OC(N)=C(C#N)C2c2ccc(Cl)cc2)cc1 (racemic) | 12.5 | – | –
Cc1ccc([S@+]([O-])C2=C(c3ccccn3)OC(N)=C(C#N)[C@H]2c2cc(C(F)(F)F)cc(C(F)(F)F)c2)cc1 | 28.6 | 30 | –
Cc1ccc(C2C(C#N)=C(N)OC(c3cc(C(F)(F)F)cc(C(F)(F)F)c3)=C2[S+]([O-])c2ccc(C)cc2)cc1 (racemic) | 11.5 | – | –
Cc1ccc([S+]([O-])C2=C(c3ccccn3)OC(N)=C(C#N)C2c2ccc([N+](=O)[O-])cc2)cc1 (racemic) | 28.9 | 30 | –
N#CC1=C(N)OC(c2ccccn2)=C([S+]([O-])c2ccc([N+](=O)[O-])cc2)C1c1ccc(Cl)cc1 (racemic) | 32.2 | – | –
N#CC1=C(N)OC(c2ccccn2)=C(S(=O)(=O)c2ccccc2)C1c1ccc([N+](=O)[O-])cc1 (racemic) | 68.5 | 45.5 | IC50 [13]: 200 µM; IC50 [5]: 148 µM; IC50 [6]: 140 µM
COc1ccccc1CN[C@H]1C2CCN(CC2)[C@H]1C(c1ccccc1)c1ccccc1 [CP-96345] | – | – | inhibition [14]: 85.3%; IC50 [5]: 46.8 µM; IC50 [6]: 57.9 µM
COc1ccc(C2C(C#N)=C(N)OC(c3ccccn3)=C2[S+]([O-])c2ccccc2)cc1 (racemic) | 11.1 | – | –
Cc1ccc(SC2=C(c3ccccn3)OC(NC(=O)C(F)(F)F)=C(C#N)[C@H]2c2ccccc2)cc1 | 36.8 | 6.93 | Activity [3]: 34.2%; Activity [4]: 13.5%
N#CC1=C(N)OC(c2ccccn2)=C([S+]([O-])c2ccccc2)C1c1ccccc1 (racemic) | 19.8 | 32 | –
CC(O)C(=O)O (configuration not stated) [LACTIC ACID] | – | – | IC50 [5]: 26.6 µM; IC50 [6]: 23.9 µM
N#CC1=C(N)OC(c2ccccn2)=C([S+]([O-])c2ccc([N+](=O)[O-])cc2)C1c1ccc([N+](=O)[O-])cc1 (racemic) | 56.1 | 35.6 | IC50 [5]: 536 µM; IC50 [6]: 825 µM
N#CC1=C(N)OC(c2ccccn2)=C([S+]([O-])c2ccccc2)C1c1ccc([N+](=O)[O-])cc1 (racemic) | 45.9 | 33.5 | –
CC(=O)NC1=C(C#N)[C@H](c2ccc(C)cc2)C([S@+]([O-])c2ccc(C)cc2)=C(c2ccccn2)O1 | 37.1 | 21.4 | Activity [3]: 30.4%

The next lines start with results.

inhibition [1] [%] | inhibition [2] [%] | SMILES | other results
28.1 | -4.43 | COc1ccc([C@H]2C(C#N)=C(N)OC(c3ccccn3)=C2[S@+]([O-])c2ccc(C)cc2)cc1 | growth inhibition (GI) [10]: 100%; inhibition at 48 h, 1000 uM [11]: 30%; growth inhibition (GI) [12]: Active; IC50 [5]: 508 µM
32.2 | 32.8 | Cc1ccc(C2C(C#N)=C(N)OC(c3ccccn3)=C2[S+]([O-])c2ccc(C)cc2)cc1 (racemic) | –
20.6 | 18.5 | Cc1ccc([S@@+]([O-])C2=C(c3ccccn3)OC(N)=C(C#N)[C@@H]2c2ccc([N+](=O)[O-])cc2)cc1 | –
21 | – | Cc1ccc([S@+]([O-])C2=C(c3ccccn3)OC(N)=C(C#N)[C@H]2c2ccc(F)cc2)cc1 | –
49.7 | 43.3 | Cc1ccc([S@+]([O-])C2=C(c3ccccn3)OC(N)=C(C#N)[C@H]2c2ccc([N+](=O)[O-])cc2)cc1 | –
5.8 | – | Cc1ccc([S@@+]([O-])C2=C(c3ccccn3)OC(N)=C(C#N)[C@@H]2c2ccc(Cl)cc2)cc1 | –
50.8 | 37 | Cc1ccc([C@@H]2C(C#N)=C(N)OC(c3ccccn3)=C2[S@@+]([O-])c2ccc(C)cc2)cc1 | –
21 | 30 | Cc1ccc([S@+]([O-])C2=C(c3ccccn3)OC(N)=C(C#N)[C@H]2c2ccc(Cl)cc2)cc1 | –
43.9 | 34.5 | COc1ccc([C@@H]2C(C#N)=C(N)OC(c3ccccn3)=C2[S@@+]([O-])c2ccc(C)cc2)cc1 | viability at 320 µM [15]: 7%; viability at 48 h, 320 µM [16]: 70%; IC50 [5]: 156 µM; IC50 [6]: 430 µM
15.8 | 13.9 | Cc1ccc([S+]([O-])C2=C(c3ccccn3)OC(N)=C(C#N)C2c2ccc(Cl)cc2)cc1 (racemic) | –
11.2 | – | Cc1ccc([S@@+]([O-])C2=C(c3ccccn3)OC(N)=C(C#N)[C@@H]2c2ccc(F)cc2)cc1 | –
23.7 | 37.5 | Cc1ccc([C@H]2C(C#N)=C(N)OC(c3ccccn3)=C2[S@+]([O-])c2ccc(C)cc2)cc1 | –
2.51 | – | Cc1ccc([S+]([O-])C2=C(c3ccccn3)OC(N)=C(C#N)C2c2ccc(F)cc2)cc1 (racemic) | –
